From patent US20070072829A1, “Fungicidal composition comprising a pyridylmethylbenzamide derivative and a sulfamide derivative” (priority 2003, published 2007)

System: Plasmopara viticola
Experiment: 72 h preventive treatment of vine plants against vine downy mildew, Abbott efficacy, Tammes and Colby analysis
Type: in vivo
[1] = Compound Ia share of the mixture, or Compound Ia alone
[2] = tolylfluanid share of the mixture, or tolylfluanid alone

Structure (SMILES)	ED70: Practical doses for 70% efficacy, dose of Compound Ia [1] [µg/mL]	ED90: Practical doses for 90% efficacy, dose of Compound Ia [1] [µg/mL]	ED70: Practical doses for 70% efficacy, dose of tolylfluanid [2] [µg/mL]	ED90: Practical doses for 90% efficacy, dose of tolylfluanid [2] [µg/mL]
O=C(NCc1ncc(C(F)(F)F)cc1Cl)c1c(Cl)cccc1Cl [Compound Ia, 2,6-dichloro-N-{[3-chloro-5-(trifluoromethyl)-2-pyridinyl]methyl}benzamide]	27	65		
Cc1ccc(N(SC(F)(Cl)Cl)S(=O)(=O)N(C)C)cc1 [Tolylfluanid, N-dichlorofluoromethylthio-N′,N′-dimethyl-N-p-tolylsulfamide]			231.4	533.6
